The values below come from patent US12558357B2, “Tetrahydroquinazoline derivatives as selective cytotoxic agents” (Merck Sharp & Dohme LLC, priority 2020, dated 2026).

Structures are written as SMILES. pEC50: −log10 of the molar value.

This experiment has as its system PBMCs infected with VSV-G pseudotyped HIV virus (VSV-G/pNLG1-P2A-ΔEnv). The experiment in a line: cells. In kind it is cell-based, human. As to conditions: Homo sapiens, PBMC, read-out: EC50 (HIV-TACK cell kill activity).
Turning to `COc1cnn(Cc2cc3c(cc2F)[C@@](C#CC2CC2)(C(C)(F)F)NC(=O)N3)c(=O)c1` [Example 83, (S)-4-(cyclopropylethynyl)-4-(1,1-difluoroethyl)-6-fluoro-7-((4-methoxy-6-oxopyridazin-1(6H)-yl)methyl)-3,4-dihydroquinazolin-2(1H)-one], the pEC50 is 7.29.

Regarding `N#Cc1ncn(Cc2ccc3c(c2)NC(=O)N[C@]3(C#CC2CC2)C(F)(F)F)c(=O)c1N` [Example 57, (S)-5-amino-1-((4-(cyclopropylethynyl)-2-oxo-4-(trifluoromethyl)-1,2,3,4-tetrahydroquinazolin-7-yl)methyl)-6-oxo-1,6-dihydropyrimidine-4-carbonitrile], the pEC50 was 6.90.

For the compound `CCN1C(=O)Nc2cc(Cn3cnccc3=O)ccc2[C@@]1(C#CC1CC1)C(F)(F)F` [Example 74, (S)-4-(cyclopropylethynyl)-3-ethyl-7-((6-oxopyrimidin-1(6H)-yl)methyl)-4-(trifluoromethyl)-3,4-dihydroquinazolin-2(1H)-one], the pEC50 is 6.58. The result for `Nc1cc(=O)n(Cc2cc3c(cc2F)[C@@](C#CC2CC2)(C(F)(F)F)NC(=O)N3)cn1` [Example 41, (S)-7-((4-amino-6-oxopyrimidin-1(6H)-yl)methyl)-4-(cyclopropylethynyl)-6-fluoro-4-(trifluoromethyl)-3,4-dihydroquinazolin-2(1H)-one] reads 7.22. The result for `CC(F)(F)[C@@]1(C#CC2CC2)NC(=O)Nc2cc(Cn3cnccc3=O)ccc21` [Example 55, (S)-4-(cyclopropylethynyl)-4-(1,1-difluoroethyl)-7-((6-oxopyrimidin-1(6H)-yl)methyl)-3,4-dihydroquinazolin-2(1H)-one] reads 7.02; that for `CN1C(=O)Nc2cc(Cn3cnccc3=O)c(Cl)cc2C1(C#CC1CC1)C(F)(F)F` (racemic) [Example 78, (S)-6-chloro-4-(cyclopropylethynyl)-3-methyl-7-((6-oxopyrimidin-1(6H)-yl)methyl)-4-(trifluoromethyl)-3,4-dihydroquinazolin-2(1H)-one AND (R)-6-chloro-4-(cyclopropylethynyl)-3-methyl-7-((6-oxopyrimidin-1(6H)-yl)methyl)-4-(trifluoromethyl)-3,4-dihydroquinazolin-2(1H)-one], 7.42. The result for `O=C1Nc2cc(Cn3cnc(Cl)cc3=O)c(F)cc2[C@@](C#CC2CC2)(C(F)(F)F)N1` [Example 44, (S)-7-((4-chloro-6-oxopyrimidin-1(6H)-yl)methyl)-4-(cyclopropylethynyl)-6-fluoro-4-(trifluoromethyl)-3,4-dihydroquinazolin-2(1H)-one] reads 7.33; that for `CC(F)(F)[C@@]1(C#CC2CC2)NC(=O)Nc2cc(Cn3ccnc(N)c3=O)ccc21` [Example 53, (S)-7-((3-amino-2-oxopyrazin-1(2H)-yl)methyl)-4-(cyclopropylethynyl)-4-(1,1-difluoroethyl)-3,4-dihydroquinazolin-2(1H)-one], 7.74; that for `CC(F)(F)[C@@]1(C#CC2CC2)NC(=O)Nc2cc(Cn3cnccc3=O)c(Cl)cc21` [Example 48, (S)-6-chloro-4-(cyclopropylethynyl)-4-(1,1-difluoroethyl)-7-((6-oxopyrimidin-1(6H)-yl)methyl)-3,4-dihydroquinazolin-2(1H)-one], 7.92. Take `Cc1cn(Cc2ccc3c(c2)NC(=O)N[C@]3(C#CC2CC2)C(F)(F)F)c(=O)[nH]c1=O` [Example 47, (S)-1-((4-(cyclopropylethynyl)-2-oxo-4-(trifluoromethyl)-1,2,3,4-tetrahydroquinazolin-7-yl)methyl)-5-methylpyrimidine-2,4(1H,3H)-dione]: the pEC50 was 6.87. For `Nc1nccn(Cc2cc3c(cc2Cl)[C@@](C#CC2CC2)(C(F)(F)F)NC(=O)N3)c1=O` [Example 58, (S)-7-((3-amino-2-oxopyrazin-1(2H)-yl)methyl)-6-chloro-4-(cyclopropylethynyl)-4-(trifluoromethyl)-3,4-dihydroquinazolin-2(1H)-one], the pEC50 was 7.39. The result for `CC(F)(F)[C@@]1(C#CC2CC2)NC(=O)Nc2cc(Cn3ccnc(N)c3=O)c(Cl)cc21` [Example 17, (S)-7-((3-amino-2-oxopyrazin-1(2H)-yl)methyl)-6-chloro-4-(cyclopropylethynyl)-4-(1,1-difluoroethyl)-3,4-dihydroquinazolin-2(1H)-one] reads 7.77. Take `Cc1cc(=O)n(Cc2ccc3c(c2)NC(=O)N[C@]3(C#CC2CC2)C(C)(F)F)cn1` [Example 64, (S)-4-(cyclopropylethynyl)-4-(1,1-difluoroethyl)-7-((4-methyl-6-oxopyrimidin-1(6H)-yl)methyl)-3,4-dihydroquinazolin-2(1H)-one]: the pEC50 is 7.03. The result for `O=C1Nc2cc(Cn3cnc(C(F)(F)F)cc3=O)c(Cl)cc2[C@@](C#CC2CC2)(C(F)(F)F)N1` [Example 42, (S)-6-chloro-4-(cyclopropylethynyl)-7-((6-oxo-4-(trifluoromethyl)pyrimidin-1(6H)-yl)methyl)-4-(trifluoromethyl)-3,4-dihydroquinazolin-2(1H)-one] reads 7.28. As to `Nc1cc(=O)n(Cc2cc3c(cc2Cl)[C@@](C#CC2CC2)(C(F)(F)F)NC(=O)N3)cn1` [Example 13, (S)-7-((4-amino-6-oxopyrimidin-1(6H)-yl)methyl)-6-chloro-4-(cyclopropylethynyl)-4-(trifluoromethyl)-3,4-dihydroquinazolin-2(1H)-one], the pEC50 was 7.34. The result for `O=C1Nc2cc(Cn3cnccc3=O)ccc2[C@@](C#CC2CC2)(C(F)(F)F)N1` [Example 21, (S)-4-(cyclopropylethynyl)-7-((6-oxopyrimidin-1(6H)-yl)methyl)-4-(trifluoromethyl)-3,4-dihydroquinazolin-2(1H)-one] reads 6.74; that for `Cc1ccc(=O)n(Cc2cc3c(cc2F)[C@@](C#CC2CC2)(C(C)(F)F)NC(=O)N3)n1` [Example 51, (S)-4-(cyclopropylethynyl)-4-(1,1-difluoroethyl)-6-fluoro-7-((3-methyl-6-oxopyridazin-1(6H)-yl)methyl)-3,4-dihydroquinazolin-2(1H)-one], 7.27.

Regarding `Cc1cnc(N)c(=O)n1Cc1ccc2c(c1)NC(=O)N[C@]2(C#CC1CC1)C(F)(F)F` [Example 30, (S)-7-((3-amino-6-methyl-2-oxopyrazin-1(2H)-yl)methyl)-4-(cyclopropylethynyl)-4-(trifluoromethyl)-3,4-dihydroquinazolin-2(1H)-one], the pEC50 was 6.82. The result for `O=C1Nc2cc(Cn3cnccc3=O)c(Cl)cc2[C@@](C#CC2CC2)(C(F)(F)F)N1` [Example 56, (S)-6-chloro-4-(cyclopropylethynyl)-7-((6-oxopyrimidin-1(6H)-yl)methyl)-4-(trifluoromethyl)-3,4-dihydroquinazolin-2(1H)-one] reads 7.46; that for `Nc1nccn(Cc2cc3c(cc2F)[C@@](C#CC2CC2)(C(F)(F)F)NC(=O)N3)c1=O` [Example 2, (S)-7-((3-amino-2-oxopyrazin-1(2H)-yl)methyl)-4-(cyclopropylethynyl)-6-fluoro-4-(trifluoromethyl)-3,4-dihydroquinazolin-2(1H)-one], 7.82; that for `O=C1Nc2cc(Cn3cnc(C(F)(F)F)cc3=O)ccc2[C@@](C#CC2CC2)(C(F)(F)F)N1` [Example 25, (S)-4-(cyclopropylethynyl)-7-((6-oxo-4-(trifluoromethyl)pyrimidin-1(6H)-yl)methyl)-4-(trifluoromethyl)-3,4-dihydroquinazolin-2(1H)-one], 6.71. As for `COCc1cc(=O)n(Cc2ccc3c(c2)NC(=O)N[C@]3(C#CC2CC2)C(C)(F)F)cn1` [Example 15, (S)-4-(cyclopropylethynyl)-4-(1,1-difluoroethyl)-7-((4-(methoxymethyl)-6-oxopyrimidin-1(6H)-yl)methyl)-3,4-dihydroquinazolin-2(1H)-one], the pEC50 was 7.19. The result for `Cc1cc2c(cc1Cn1cnccc1=O)NC(=O)N[C@]2(C#CC1CC1)C(F)(F)F` [Example 80, (S)-4-(cyclopropylethynyl)-6-methyl-7-((6-oxopyrimidin-1(6H)-yl)methyl)-4-(trifluoromethyl)-3,4-dihydroquinazolin-2(1H)-one] reads 7.24; that for `Nc1ccnn(Cc2cc3c(cc2F)[C@@](C#CC2CC2)(C(F)(F)F)NC(=O)N3)c1=O` [Example 26, (S)-7-((5-amino-6-oxopyridazin-1(6H)-yl)methyl)-4-(cyclopropylethynyl)-6-fluoro-4-(trifluoromethyl)-3,4-dihydroquinazolin-2(1H)-one], 6.65. In the case of `O=C1Nc2cc(Cn3nc(Cl)ccc3=O)ccc2[C@@](C#CC2CC2)(C(F)(F)F)N1` [Example 29, (S)-7-((3-chloro-6-oxopyridazin-1(6H)-yl)methyl)-4-(cyclopropylethynyl)-4-(trifluoromethyl)-3,4-dihydroquinazolin-2(1H)-one], the pEC50 was 6.79. For the compound `N#Cc1cc(=O)n(Cc2ccc3c(c2)NC(=O)N[C@]3(C#CC2CC2)C(F)(F)F)cn1` [Example 27, (S)-1-((4-(cyclopropylethynyl)-2-oxo-4-(trifluoromethyl)-1,2,3,4-tetrahydroquinazolin-7-yl)methyl)-6-oxo-1,6-dihydropyrimidine-4-carbonitrile], the pEC50 was 6.72. The result for `O=C1Nc2cc(Cn3cncc(CO)c3=O)c(F)cc2[C@@](C#CC2CC2)(C(F)(F)F)N1` [Example 66, (S)-4-(cyclopropylethynyl)-6-fluoro-7-((5-(hydroxymethyl)-6-oxopyrimidin-1(6H)-yl)methyl)-4-(trifluoromethyl)-3,4-dihydroquinazolin-2(1H)-one] reads 6.73; that for `O=C1Nc2cc(Cn3cnccc3=O)c(Br)cc2[C@@](C#CC2CC2)(C(F)(F)F)N1` [Example 14, (S)-6-bromo-4-(cyclopropylethynyl)-7-((6-oxopyrimidin-1(6H)-yl)methyl)-4-(trifluoromethyl)-3,4-dihydroquinazolin-2(1H)-one], 7.51.
